From PubChem BioAssay AID248 (DTP/NCI, 2004)
Where “and” joins values, the source holds several entries; their conditions need not be identical. Equal values may be shown once. Toxic doses and inconclusive results are not listed. Rule as the data show it: active = T/C of 150% or more; inactive = T/C below 125%.

Tested on: L1210 leukemia ip in BDF1 mice, survival T/C
Assay: NCI In Vivo Anticancer Drug Screen. Data for tumor model L1210 Leukemia (intraperitoneal) in B6D2F1 (BDF1) mice
Settings: endpoint: mean survival time, higher = longer survival
Outline: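 Survival endpoint. Drug-treated group vs vehicle group, expressed as T divided by C. Tumor passaged by transplantation.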

[1] = dose: 100.0 mg/kg/injection, schedule: Q01DX001 (ip), vehicle: saline
[2] = dose: 200.0 mg/kg/injection, schedule: Q01DX001 (ip), vehicle: saline
[3] = dose: 400.0 mg/kg/injection, schedule: Q01DX001 (ip), vehicle: saline
[4] = dose: 50.0 mg/kg/injection, schedule: Q01DX009 (ip), vehicle: saline with Tween-80
[5] = dose: 100.0 mg/kg/injection, schedule: Q01DX009 (ip), vehicle: saline with Tween-80
[6] = dose: 200.0 mg/kg/injection, schedule: Q01DX009 (ip), vehicle: saline with Tween-80
[7] = dose: 100.0 mg/kg/injection, schedule: Q01DX001 (ip), vehicle: Klucel (hydroxypropylcellulose) (HPC)
[8] = dose: 200.0 mg/kg/injection, schedule: Q01DX001 (ip), vehicle: Klucel (hydroxypropylcellulose) (HPC)
[9] = dose: 100.0 mg/kg/injection, schedule: Q01DX001 (ip), vehicle: saline with Tween-80
[10] = dose: 200.0 mg/kg/injection, schedule: Q01DX001 (ip), vehicle: saline with Tween-80
[11] = dose: 400.0 mg/kg/injection, schedule: Q01DX009 (ip), vehicle: saline with Tween-80
[12] = dose: 100.0 mg/kg/injection, schedule: Q04DX002 (ip), vehicle: saline with Tween-80
[13] = dose: 400.0 mg/kg/injection, schedule: Q04DX002 (ip), vehicle: saline with Tween-80
[14] = dose: 400.0 mg/kg/injection, schedule: Q01DX001 (ip), vehicle: Klucel (hydroxypropylcellulose) (HPC)
[15] = dose: 100.0 mg/kg/injection, schedule: Q01DX009 (ip), vehicle: Klucel (hydroxypropylcellulose) (HPC)

Measured: T/C

CC(C)(C)c1cc([N+](C)(C)C)cc(C(C)(C)C)n1
inactive: dose: 6.25 mg/kg/injection, schedule: Q01DX001 (ip), vehicle: saline 97 % of control | dose: 12.5 mg/kg/injection, schedule: Q01DX001 (ip), vehicle: saline 112 % of control | dose: 25.0 mg/kg/injection, schedule: Q01DX001 (ip), vehicle: saline 105 % of control

CC(=O)Nc1cccc(-c2nnc(C3CCCC(NC(C)=O)C3)nn2)c1 (stereo not given)
inactive: [1] 96 % of control | [2] 88 % of control | [3] 88 % of control

O=S1(=O)C(Cl)=C(Cl)C2C3CC(C(Cl)C3Cl)C21 (stereo not given)
inactive: dose: 50.0 mg/kg/injection, schedule: Q01DX009 (ip), vehicle: acetone 95 % of control | dose: 100.0 mg/kg/injection, schedule: Q01DX009 (ip), vehicle: acetone 93 % of control | dose: 100.0 mg/kg/injection, schedule: Q04DX003 (ip), vehicle: acetone 92 % of control | dose: 200.0 mg/kg/injection, schedule: Q01DX009 (ip), vehicle: acetone 98 % of control | dose: 200.0 mg/kg/injection, schedule: Q04DX003 (ip), vehicle: acetone 101 % of control | dose: 400.0 mg/kg/injection, schedule: Q04DX003 (ip), vehicle: acetone 92 % of control

O=[N+]([O-])c1ccc2c(c1)-c1ccccc1C2O (stereo not given)
inactive: dose: 100.0 mg/kg/injection, schedule: Q01DX005 (ip), vehicle: Klucel (hydroxypropylcellulose) (HPC) 105 % of control | dose: 100.0 mg/kg/injection, schedule: Q04DX002 (ip), vehicle: Klucel (hydroxypropylcellulose) (HPC) 107 % of control | dose: 200.0 mg/kg/injection, schedule: Q01DX005 (ip), vehicle: Klucel (hydroxypropylcellulose) (HPC) 94 % of control | dose: 200.0 mg/kg/injection, schedule: Q04DX002 (ip), vehicle: Klucel (hydroxypropylcellulose) (HPC) 93 % of control | dose: 400.0 mg/kg/injection, schedule: Q01DX005 (ip), vehicle: Klucel (hydroxypropylcellulose) (HPC) 91 % of control | dose: 400.0 mg/kg/injection, schedule: Q04DX002 (ip), vehicle: Klucel (hydroxypropylcellulose) (HPC) 104 % of control

O=C1Nc2ccccc2/C1=C/C(=O)c1c[nH]c2ccccc12
inactive: [4] 101 % of control | [5] 101 % of control | [6] 96 % of control

CCCCCCCCCCCCNNC(=O)OCCO
inactive: [1] 101 % of control | [2] 93 % of control

CCNc1nc(C)c2nc(C(=O)NCc3ccccc3)c(=O)n(CC)c2n1
inactive: [7] 94 % of control | [8] 94 % of control

Cc1[nH]cnc1C(c1ccccc1)c1ccccc1
inactive: [9] 108 % of control | [10] 100 % of control

O=C(Nc1ccccc1)C1=C(Nc2ccccc2)CSC1
inactive: dose: 25.0 mg/kg/injection, schedule: Q01DX009 (ip), vehicle: saline with Tween-80 109 % of control | [4] 100 % of control | [5] 94 % of control | [6] 98 % of control | [11] 89 % of control

CCC1OCC(C(Cl)CCl)O1 (stereo not given)
inactive: dose: 100.0 mg/kg/injection, schedule: Q01DX009 (ip), vehicle: saline sonified 99 % of control

NC(CSS(=O)(=O)O)=NCCSc1ccccc1
inactive: dose: 12.5 mg/kg/injection, schedule: Q04DX002 (ip), vehicle: Klucel (hydroxypropylcellulose) (HPC) 95 % of control | dose: 25.0 mg/kg/injection, schedule: Q04DX002 (ip), vehicle: Klucel (hydroxypropylcellulose) (HPC) 106 % of control | dose: 50.0 mg/kg/injection, schedule: Q04DX002 (ip), vehicle: Klucel (hydroxypropylcellulose) (HPC) 106 % of control

CC1CCCCN1Cc1ccccc1COC(=O)c1cccc(Cl)c1 (stereo not given)
inactive: dose: 25.0 mg/kg/injection, schedule: Q04DX002 (ip), vehicle: other 98 % of control | dose: 50.0 mg/kg/injection, schedule: Q04DX002 (ip), vehicle: other 113 % of control | dose: 50.0 mg/kg/injection, schedule: Q04DX002 (ip), vehicle: saline with Tween-80 91 % of control | dose: 100.0 mg/kg/injection, schedule: Q04DX002 (ip), vehicle: other 88 % of control | [12] 94 % of control and 86 % of control | [13] 101 % of control

Cc1cccc(=O)n1Cc1ccccc1
inactive: [1] 104 % of control | [5] 97 % of control | [2] 98 % of control | [6] 91 % of control | [3] 105 % of control | [11] 88 % of control

COC1OCC(OS(C)(=O)=O)C(OS(C)(=O)=O)C1OS(C)(=O)=O (stereo not given)
inactive: dose: 100.0 mg/kg/injection, schedule: Q04DX003 (ip), vehicle: saline with Tween-80 97 % of control and 96 % of control | dose: 200.0 mg/kg/injection, schedule: Q04DX003 (ip), vehicle: saline with Tween-80 97 % of control and 98 % of control | dose: 400.0 mg/kg/injection, schedule: Q04DX003 (ip), vehicle: saline with Tween-80 100 % of control and 98 % of control

CCCCSP(=S)(SCCCC)SCCCC
inactive: [7] 94 % of control | [5] 105 % of control | [8] 94 % of control | [6] 105 % of control | [14] 97 % of control | [11] 102 % of control

Nc1ncnc2c1nc1n2C2OC(CO)C(O)C2O1 (stereo not given)
inactive: [1] 111 % of control | [2] 109 % of control | [3] 111 % of control

COc1ccc(N=NS(=O)O)cc1
inactive: [7] 98 % of control | [8] 97 % of control | [14] 95 % of control

COc1cccc(NC(=O)Nc2cccc(Cl)c2)c1
inactive: [15] 94 % of control | dose: 400.0 mg/kg/injection, schedule: Q01DX009 (ip), vehicle: Klucel (hydroxypropylcellulose) (HPC) 95 % of control

CCC[CH2][Sn]([CH2]CCC)([CH2]CCC)[N]=C=S
inactive: dose: 0.39 mg/kg/injection, schedule: Q01DX001 (ip), vehicle: saline with Tween-80 89 % of control | dose: 0.78 mg/kg/injection, schedule: Q01DX001 (ip), vehicle: saline with Tween-80 93 % of control | dose: 1.56 mg/kg/injection, schedule: Q01DX001 (ip), vehicle: saline with Tween-80 105 % of control

CC(=O)OC1CCC2(C)C3=C(CCC2C1(C)C)C1(C)CCC(c2ccc(C(C)C)oc2=O)C1(C)CC3 (stereo not given)
inactive: dose: 100.0 mg/kg/injection, schedule: Q01DX001 (sc), vehicle: steriod suspending solution 103 % of control | dose: 200.0 mg/kg/injection, schedule: Q01DX001 (sc), vehicle: steriod suspending solution 106 % of control | dose: 400.0 mg/kg/injection, schedule: Q01DX001 (sc), vehicle: steriod suspending solution 103 % of control

CCCCSCCO
inactive: [5] 89 % of control | [12] 96 % of control | [6] 96 % of control | dose: 200.0 mg/kg/injection, schedule: Q04DX002 (ip), vehicle: saline with Tween-80 93 % of control | [11] 107 % of control | [13] 86 % of control

CCCCCCCCCCC/C(C)=N/Nc1ccc([N+](=O)[O-])cc1[N+](=O)[O-]
inactive: [9] 94 % of control | [10] 92 % of control | dose: 400.0 mg/kg/injection, schedule: Q01DX001 (ip), vehicle: saline with Tween-80 92 % of control

CC(=O)N1CCN(C(C)=O)C1=S
inactive: [7] 96 % of control | [8] 95 % of control | [14] 98 % of control

C=CCNc1nc(C)ncc1C(=O)OCC
inactive: dose: 75.0 mg/kg/injection, schedule: Q04DX003 (ip), vehicle: saline with Tween-80 94 % of control | dose: 150.0 mg/kg/injection, schedule: Q04DX003 (ip), vehicle: saline with Tween-80 92 % of control | dose: 300.0 mg/kg/injection, schedule: Q04DX003 (ip), vehicle: saline with Tween-80 92 % of control

O=[N+]([O-])c1ccccn1
inactive: dose: 6.25 mg/kg/injection, schedule: Q01DX009 (ip), vehicle: saline 102 % of control | dose: 6.25 mg/kg/injection, schedule: Q04DX003 (ip), vehicle: saline 95 % of control | dose: 12.5 mg/kg/injection, schedule: Q01DX009 (ip), vehicle: saline 102 % of control | dose: 12.5 mg/kg/injection, schedule: Q04DX003 (ip), vehicle: saline 98 % of control | dose: 25.0 mg/kg/injection, schedule: Q04DX003 (ip), vehicle: saline 93 % of control | dose: 75.0 mg/kg/injection, schedule: Q01DX001 (ip), vehicle: other 98 % of control

S=C(NCc1cccc(Cl)c1)Nc1ccccc1
inactive: dose: 25.0 mg/kg/injection, schedule: Q01DX009 (ip), vehicle: Klucel (hydroxypropylcellulose) (HPC) 98 % of control | dose: 50.0 mg/kg/injection, schedule: Q01DX009 (ip), vehicle: Klucel (hydroxypropylcellulose) (HPC) 106 % of control | [15] 93 % of control
